Reference: patent US20240082223A1, “DIHYDROFUROPYRIDINE DERIVATIVES AS RHO- KINASE INHIBITORS” (CHIESI FARMACEUTICI S.P.A., priority 2020, published 2024)

What was measured:
ROCK1 = ROCK1 (Homo sapiens, UniProt Q13464); assay: In vitro inhibitory activity assay ROCK1 (Method A, ADP-Glo, 10 μM ATP); assay type: biochemical; details: ATP 10 μM, read-out: Method A ROCK 1 (Ki)
Procedure: (§1) In vitro inhibitory activity assay description ROCK1 and ROCK2
(§2) The effectiveness of compounds of the present invention to inhibit Rho kinase activity can be determined in a 10 μl assay containing 40 mM Tris pH7.5, 20 mM MgCl2 0.1 mg/mL BSA, 50 μM DTT and 2.5 μM peptide substrate (Myelin Basic Protein) using an ADP-Glo kit (Promega). Compounds were dissolved in DMSO such that the final concentration of DMSO was 1% in the assay. All reactions/incubations are performed at 25° C. Compound (2 uL) and either Rho kinase 1 or 2 (4 μl) were mixed and incubated for 30 min. Reactions were initiated by addition of ATP (4 μL) such that the final concentration of ATP in the assay was 10 μM. After a 1 hour incubation […] of ADP-Glo Reagent was added and after a further 45 minutes incubation 20 uL of Kinase Detection Buffer was added and the mixture incubated for a further 30 minutes. The luminescent signal was measured on a luminometer. […] Compounds were tested in dose-response format and the inhibition of kinase activity was calculated at each concentration of compound. To determine the IC50 (concentration of compound required to inhibit 50% of the enzyme activity) data were fit to a plot of % inhibition vs Log10 compound concentration using a sigmoidal fit with a variable slope and fixing the maximum to 100% and the minimum to 0%. To determine the Ki values the Cheng-Prusoff equation was utilized (Ki=IC50/(1+[S]/Km).

ROCK2 = ROCK2 (Homo sapiens, UniProt O75116); assay: In vitro inhibitory activity assay ROCK2 (Method A, ADP-Glo, 10 μM ATP); assay type: biochemical; details: ATP 10 μM, read-out: Method A ROCK 2 (Ki)
ROCK2, sequence (O75116 whole entry): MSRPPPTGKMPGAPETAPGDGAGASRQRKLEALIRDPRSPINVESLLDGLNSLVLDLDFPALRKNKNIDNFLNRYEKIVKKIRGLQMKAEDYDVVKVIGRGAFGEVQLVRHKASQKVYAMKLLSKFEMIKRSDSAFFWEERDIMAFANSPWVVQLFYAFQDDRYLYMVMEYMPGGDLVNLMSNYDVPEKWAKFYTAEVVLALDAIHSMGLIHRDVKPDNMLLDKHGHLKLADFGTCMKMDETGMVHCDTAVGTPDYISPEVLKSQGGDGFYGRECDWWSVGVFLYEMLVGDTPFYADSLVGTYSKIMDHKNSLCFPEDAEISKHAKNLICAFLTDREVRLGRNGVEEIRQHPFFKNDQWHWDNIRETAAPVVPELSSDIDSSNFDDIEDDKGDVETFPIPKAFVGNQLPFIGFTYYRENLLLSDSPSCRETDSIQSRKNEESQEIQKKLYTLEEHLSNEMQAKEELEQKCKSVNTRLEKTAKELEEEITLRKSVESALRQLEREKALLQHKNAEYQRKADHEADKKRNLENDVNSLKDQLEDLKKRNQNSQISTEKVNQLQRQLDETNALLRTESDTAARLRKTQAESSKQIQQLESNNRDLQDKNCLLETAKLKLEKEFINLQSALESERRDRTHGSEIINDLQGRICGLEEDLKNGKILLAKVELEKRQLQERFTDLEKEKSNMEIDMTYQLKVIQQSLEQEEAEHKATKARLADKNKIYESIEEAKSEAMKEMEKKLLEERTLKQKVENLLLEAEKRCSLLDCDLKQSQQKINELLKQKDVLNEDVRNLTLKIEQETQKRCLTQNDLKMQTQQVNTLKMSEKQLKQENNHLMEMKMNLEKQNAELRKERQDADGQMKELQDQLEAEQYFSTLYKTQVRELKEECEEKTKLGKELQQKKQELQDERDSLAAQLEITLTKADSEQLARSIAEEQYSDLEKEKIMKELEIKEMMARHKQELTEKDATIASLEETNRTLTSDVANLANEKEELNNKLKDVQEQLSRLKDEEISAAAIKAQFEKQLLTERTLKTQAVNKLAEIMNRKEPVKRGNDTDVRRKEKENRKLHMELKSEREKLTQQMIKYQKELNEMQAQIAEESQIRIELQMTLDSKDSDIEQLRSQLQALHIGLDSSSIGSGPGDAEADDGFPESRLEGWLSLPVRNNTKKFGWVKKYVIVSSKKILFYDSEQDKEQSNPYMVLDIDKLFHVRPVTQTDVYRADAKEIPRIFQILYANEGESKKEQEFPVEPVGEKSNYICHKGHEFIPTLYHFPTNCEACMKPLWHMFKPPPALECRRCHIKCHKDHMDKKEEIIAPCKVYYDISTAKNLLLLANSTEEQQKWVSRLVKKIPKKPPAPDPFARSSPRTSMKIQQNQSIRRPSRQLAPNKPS
Procedure: as §1, §2

ROCK1, sequence (Q13464 whole entry): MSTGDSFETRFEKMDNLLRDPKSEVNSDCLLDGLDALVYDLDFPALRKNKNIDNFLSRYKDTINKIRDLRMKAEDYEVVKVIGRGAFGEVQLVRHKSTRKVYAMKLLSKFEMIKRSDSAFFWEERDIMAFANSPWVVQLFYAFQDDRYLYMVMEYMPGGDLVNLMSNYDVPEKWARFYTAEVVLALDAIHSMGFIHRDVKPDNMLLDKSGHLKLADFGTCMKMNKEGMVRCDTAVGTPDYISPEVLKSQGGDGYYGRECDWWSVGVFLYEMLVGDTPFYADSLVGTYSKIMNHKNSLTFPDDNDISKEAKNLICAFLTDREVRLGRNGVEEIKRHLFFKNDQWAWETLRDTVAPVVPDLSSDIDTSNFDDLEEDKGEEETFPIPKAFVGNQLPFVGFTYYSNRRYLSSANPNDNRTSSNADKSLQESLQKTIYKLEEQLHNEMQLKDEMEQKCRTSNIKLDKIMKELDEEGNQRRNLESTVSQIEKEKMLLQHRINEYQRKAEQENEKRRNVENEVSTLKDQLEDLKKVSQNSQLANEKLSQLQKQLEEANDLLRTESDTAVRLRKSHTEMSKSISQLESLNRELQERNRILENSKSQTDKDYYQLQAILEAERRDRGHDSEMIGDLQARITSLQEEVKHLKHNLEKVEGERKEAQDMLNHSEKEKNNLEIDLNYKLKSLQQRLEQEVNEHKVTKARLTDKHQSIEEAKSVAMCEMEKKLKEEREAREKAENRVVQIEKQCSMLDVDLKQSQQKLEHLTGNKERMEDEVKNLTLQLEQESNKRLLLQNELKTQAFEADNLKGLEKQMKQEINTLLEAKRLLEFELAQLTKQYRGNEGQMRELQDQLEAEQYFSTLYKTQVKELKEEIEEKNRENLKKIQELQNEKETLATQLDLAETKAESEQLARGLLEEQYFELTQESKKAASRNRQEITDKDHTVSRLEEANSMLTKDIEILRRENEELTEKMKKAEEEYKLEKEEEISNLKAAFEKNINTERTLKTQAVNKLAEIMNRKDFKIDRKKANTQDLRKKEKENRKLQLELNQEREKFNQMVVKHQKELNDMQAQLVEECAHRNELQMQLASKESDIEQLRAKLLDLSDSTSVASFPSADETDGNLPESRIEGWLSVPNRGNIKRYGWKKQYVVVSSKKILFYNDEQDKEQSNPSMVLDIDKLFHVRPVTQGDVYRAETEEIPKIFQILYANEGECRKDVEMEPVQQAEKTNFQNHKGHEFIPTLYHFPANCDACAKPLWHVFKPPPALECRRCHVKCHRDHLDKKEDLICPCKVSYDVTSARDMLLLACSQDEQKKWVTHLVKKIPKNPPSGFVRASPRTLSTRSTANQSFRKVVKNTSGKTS

Ki (ROCK1)	Ki (ROCK2)	SMILES
≤ 3 nM	≤ 3 nM	O=C(NCCc1ccncc1)c1cccc(CNc2ncc(-c3cn[nH]c3)c3c2CCO3)c1 [Example 17, 3-(((7-(1H-pyrazol-4-yl)-2,3-dihydrofuro[3,2-c]pyridin-4-yl)amino)methyl)-N-(2-(pyridin-4-yl)ethyl)benzamide]
≤ 3 nM	≤ 3 nM	CN(C)Cc1cccc(NC(=O)c2cccc(CNc3ncc(-c4cn[nH]c4)c4c3CCO4)c2)c1 [Example 18, 3-(((7-(1H-pyrazol-4-yl)-2,3-dihydrofuro[3,2-c]pyridin-4-yl)amino)methyl)-N-(3-((dimethylamino)methyl)phenyl)benzamide]
≤ 3 nM	≤ 3 nM	CN(C)Cc1cccc(CNC(=O)c2cccc(CNc3ncc(-c4cn[nH]c4)c4c3CCO4)c2)c1 [Example 19, 3-(((7-(1H-pyrazol-4-yl)-2,3-dihydrofuro[3,2-c]pyridin-4-yl)amino)methyl)-N-(3-((dimethylamino)methyl)benzyl)benzamide]
≤ 3 nM	≤ 3 nM	O=C(NCCN1CCOCC1)c1cccc(CNc2ncc(-c3cn[nH]c3)c3c2CCO3)c1 [Example 20, 3-(((7-(1H-pyrazol-4-yl)-2,3-dihydrofuro[3,2-c]pyridin-4-yl)amino)methyl)-N-(2-morpholinoethyl)benzamide]
≤ 3 nM	≤ 3 nM	CN1CCc2nc(NC(=O)c3cccc(CNc4ncc(-c5cn[nH]c5)c5c4CCO5)c3)sc2C1 [Example 21, 3-(((7-(1H-pyrazol-4-yl)-2,3-dihydrofuro[3,2-c]pyridin-4-yl)amino)methyl)-N-(5-methyl-4,5,6,7-tetrahydrothiazolo[5,4-c]pyridin-2-yl)benzamide]
≤ 3 nM	≤ 3 nM	O=C(NCCc1cccnc1)c1cccc(CNc2ncc(-c3cn[nH]c3)c3c2CCO3)c1 [Example 22, 3-(((7-(1H-pyrazol-4-yl)-2,3-dihydrofuro[3,2-c]pyridin-4-yl)amino)methyl)-N-(2-(pyridin-3-yl)ethyl)benzamide]
≤ 3 nM	≤ 3 nM	O=C(N[C@H](CO)c1ccccc1)c1cccc(CNc2ncc(-c3cn[nH]c3)c3c2CCO3)c1 [Example 23, (S)-3-(((7-(1H-pyrazol-4-yl)-2,3-dihydrofuro[3,2-c]pyridin-4-yl)amino)methyl)-N-(2-hydroxy-1-phenylethyl)benzamide]
≤ 3 nM	≤ 3 nM	CN(C)Cc1ccc(CNC(=O)c2cccc(CNc3ncc(-c4cn[nH]c4)c4c3CCO4)c2)cc1 [Example 24, 3-(((7-(1H-pyrazol-4-yl)-2,3-dihydrofuro[3,2-c]pyridin-4-yl)amino)methyl)-N-(4-((dimethylamino)methyl)benzyl)benzamide]
≤ 3 nM	≤ 3 nM	Cc1ccc(CNC(=O)c2cccc(CNc3ncc(-c4cn[nH]c4)c4c3CCO4)c2)s1 [Example 25, 3-(((7-(1H-pyrazol-4-yl)-2,3-dihydrofuro[3,2-c]pyridin-4-yl)amino)methyl)-N-((5-methylthiophen-2-yl)methyl)benzamide]
≤ 3 nM	≤ 3 nM	O=C(NC1CCN(CCc2ccccc2)CC1)c1cccc(CNc2ncc(-c3cn[nH]c3)c3c2CCO3)c1 [Example 26, 3-(((7-(1H-pyrazol-4-yl)-2,3-dihydrofuro[3,2-c]pyridin-4-yl)amino)methyl)-N-(1-phenethylpiperidin-4-yl)benzamide]
≤ 3 nM	≤ 3 nM	CN(C)CCn1cc(NC(=O)c2cccc(CNc3ncc(-c4cn[nH]c4)c4c3CCO4)c2)cn1 [Example 27, 3-(((7-(1H-pyrazol-4-yl)-2,3-dihydrofuro[3,2-c]pyridin-4-yl)amino)methyl)-N-(1-(2-(dimethylamino)ethyl)-1H-pyrazol-4-yl)benzamide]
3 to 30 nM	≤ 3 nM	CN1CCc2nc(CNC(=O)c3cccc(CNc4ncc(-c5cn[nH]c5)c5c4CCO5)c3)sc2C1 [Example 29, 3-(((7-(1H-pyrazol-4-yl)-2,3-dihydrofuro[3,2-c]pyridin-4-yl)amino)methyl)-N-((5-methyl-4,5,6,7-tetrahydrothiazolo[5,4-c]pyridin-2-yl)methyl)benzamide]
≤ 3 nM	≤ 3 nM	CN1Cc2ccc(CNC(=O)c3cccc(CNc4ncc(-c5cn[nH]c5)c5c4CCO5)c3)cc2C1 [Example 30, 3-(((7-(1H-pyrazol-4-yl)-2,3-dihydrofuro[3,2-c]pyridin-4-yl)amino)methyl)-N-((2-methylisoindolin-5-yl)methyl)benzamide]
≤ 3 nM	≤ 3 nM	CN(C)Cc1ccc(C(=O)Nc2cccc(CNc3ncc(-c4cn[nH]c4)c4c3CCO4)c2)cc1 [Example 35, N-(3-(((7-(1H-Pyrazol-4-yl)-2,3-dihydrofuro[3,2-c]pyridin-4-yl)amino)methyl)phenyl)-4-((dimethylamino)methyl)benzamide]
≤ 3 nM	≤ 3 nM	CN1CCc2sc(C(=O)Nc3cccc(CNc4ncc(-c5cn[nH]c5)c5c4CCO5)c3)nc2C1 [Example 36, N-(3-(((7-(1H-pyrazol-4-yl)-2,3-dihydrofuro[3,2-c]pyridin-4-yl)amino)methyl)phenyl)-5-methyl-4,5,6,7-tetrahydrothiazolo[4,5-c]pyridine-2-carboxamide]
≤ 3 nM	≤ 3 nM	CN1CCc2nc(C(=O)Nc3cccc(CNc4ncc(-c5cn[nH]c5)c5c4CCO5)c3)sc2C1 [Example 37, N-(3-(((7-(1H-pyrazol-4-yl)-2,3-dihydrofuro[3,2-c]pyridin-4-yl)amino)methyl)phenyl)-5-methyl-4,5,6,7-tetrahydrothiazolo[5,4-c]pyridine-2-carboxamide]
≤ 3 nM	≤ 3 nM	O=C(Nc1cccc(CNc2ncc(-c3cn[nH]c3)c3c2CCO3)c1)c1nc2c(s1)CN(CCO)CC2 [Example 38, N-(3-(((7-(1H-pyrazol-4-yl)-2,3-dihydrofuro[3,2-c]pyridin-4-yl)amino)methyl)phenyl)-5-(2-hydroxyethyl)-4,5,6,7-tetrahydrothiazolo[5,4-c]pyridine-2-carboxamide]
≤ 3 nM	≤ 3 nM	Cn1ncc2cc(C(=O)Nc3cccc(CNc4ncc(-c5cn[nH]c5)c5c4CCO5)c3)ccc21 [Example 39, N-(3-(((7-(1H-pyrazol-4-yl)-2,3-dihydrofuro[3,2-c]pyridin-4-yl)amino)methyl)phenyl)-1-methyl-1H-indazole-5-carboxamide]
≤ 3 nM	≤ 3 nM	O=C(Nc1cccc(CNc2ncc(-c3cn[nH]c3)c3c2CCO3)c1)c1ccc2c(c1)CCNC2 [Example 40, N-(3-(((7-(1H-pyrazol-4-yl)-2,3-dihydrofuro[3,2-c]pyridin-4-yl)amino)methyl)phenyl)-1,2,3,4-tetrahydroisoquinoline-6-carboxamide]
> 30 nM	3 to 30 nM	Cn1nc(C(=O)Nc2cccc(CNc3ncc(-c4cn[nH]c4)c4c3CCO4)c2)c2ccccc21 [Example 41, N-(3-(((7-(1H-pyrazol-4-yl)-2,3-dihydrofuro[3,2-c]pyridin-4-yl)amino)methyl)phenyl)-1-methyl-1H-indazole-3-carboxamide]
3 to 30 nM	≤ 3 nM	Cn1ncc2c(C(=O)Nc3cccc(CNc4ncc(-c5cn[nH]c5)c5c4CCO5)c3)cccc21 [Example 42, N-(3-(((7-(1H-pyrazol-4-yl)-2,3-dihydrofuro[3,2-c]pyridin-4-yl)amino)methyl)phenyl)-1-methyl-1H-indazole-4-carboxamide]
≤ 3 nM	≤ 3 nM	O=C(Nc1cc(CNc2ncc(-c3cn[nH]c3)c3c2CCO3)ccc1F)c1ccc2c(c1)CCNC2 [Example 47, N-(5-(((7-(1H-pyrazol-4-yl)-2,3-dihydrofuro[3,2-c]pyridin-4-yl)amino)methyl)-2-fluorophenyl)-1,2,3,4-tetrahydroisoquinoline-6-carboxamide]
≤ 3 nM	≤ 3 nM	CN(C)Cc1cccc(C(=O)Nc2cccc(CNc3ncc(-c4cn[nH]c4)c4c3CCO4)c2)c1 [Example 49, N-(3-(((7-(1H-pyrazol-4-yl)-2,3-dihydrofuro[3,2-c]pyridin-4-yl)amino)methyl)phenyl)-3-((dimethylamino)methyl)benzamide]
3 to 30 nM	3 to 30 nM	O=C(Cc1ccccc1)Nc1cccc(CNc2ncc(-c3cn[nH]c3)c3c2CCO3)c1 [Example 50, N-(3-(((7-(1H-pyrazol-4-yl)-2,3-dihydrofuro[3,2-c]pyridin-4-yl)amino)methyl)phenyl)-2-phenylacetamide]
≤ 3 nM	≤ 3 nM	CN1CCc2cc(C(=O)Nc3cccc(CNc4ncc(-c5cn[nH]c5)c5c4CCO5)c3)cnc2C1 [Example 51, N-(3-(((7-(1H-pyrazol-4-yl)-2,3-dihydrofuro[3,2-c]pyridin-4-yl)amino)methyl)phenyl)-7-methyl-5,6,7,8-tetrahydro-1,7-naphthyridine-3-carboxamide]
3 to 30 nM	3 to 30 nM	CC(=O)Nc1cccc(C(C)Nc2ncc(-c3cn[nH]c3)c3c2CCO3)c1 (stereo not shown) [Example 52, N-(3-(1-((7-(1H-pyrazol-4-yl)-2,3-dihydrofuro[3,2-c]pyridin-4-yl)amino)ethyl)phenyl)acetamide]
